The test system of the assay is HT-29 human adenocarcinoma cells. Put plainly: Apoptosis induction in Human Adenocarcinoma cells (HT-29). The class given is cell-based. The settings on record: HT-29 cells, FIG. 18 and FIG. 19.

Structures are written as SMILES.

As to `CC/C=C\C/C=C\C/C=C\C/C=C\C/C=C\C/C=C\CCC(=O)Oc1ccccc1C(=O)O` [DHASPIR, 2-((4Z,7Z,10Z,13Z,16Z,19Z)-docosa-4,7,10,13,16,19-hexaenoyloxy)benzoic acid], the pro-apoptotic effect result is recorded as “same pro-apoptotic effect as the DHA/acetyl salicylate combination”.

For the origin of these results see patent US9056139B2, “Fatty acid-salicylate conjugates with enhanced therapeutic properties” (KEAN UNIVERSITY, priority 2012, dated 2015).
